In the test the test system is IL-17A-induced G-CSF production in human normal keratinocyte (NHK). Briefly: NHK Assay: IL-17A-induced G-CSF production in human normal keratinocyte. It is filed as cell-based. The note with it: 24 h, IL-17A 5 ng/mL, simple average if tested more than once. On the procedure:
IL-17A acts directly on keratinocytes through binding to dimeric receptor IL-17RA/RC and drives the production of a number of inflammatory mediators known to be elevated in psoriasis lesional tissue. IL-17A small molecule inhibitors that block the IL-17A to interact with IL-17R would inhibit the IL-17A signaling in its targeted cells such as keratinocytes. The compound functional activity is evaluated for its impact on IL-17A-induced G-CSF production in human normal keratinocyte (NHK).
Adult normal human keratinocytes are cultured in keratinocyte growth medium (Lonza) in a flask till reaching ˜90% confluence, then cells are transferred to a 384-well plate at density of 3000-4000 cell/well. Recombinant human IL-17A (Gibco PHC9174) is pre-incubated with titrated compound or DMSO for 1 h at rt then added to the cell culture plate. The final concentration of IL-17A is 5 ng/mL and DMSO is 0.2%, in the culture containing 5% FBS. Cells are cultured/treated for 24 h at 37° C. Supernatants are collected and G-CSF production is measured through HTRF technology using Human G-CSF Kit (CisBio). G-CSF concentration was extrapolated from the standard curve and IC50 is determined using GraphPad Prism. Cell viability is also evaluated using CellTiter-Glo kit (Promega) and effect of compound on cell viability is compared to DMSO control.

Structures are written as SMILES.

With `[2H]C1([2H])NC(=O)N([C@@H](c2ccc3[nH]c([C@H](COC(C)(C)C(F)(F)F)NC(=O)c4nonc4C4CC4)nc3c2)C2CC2)CC1(F)F` [Example 82, 4-Cyclopropyl-N-[(1R)-1-[5-[(R)-cyclopropyl-(4,4-dideuterio-5,5-difluoro-2-oxo-hexahydropyrimidin-1-yl)methyl]-1H-benzimidazol-2-yl]-2-(2,2,2-trifluoro-1,1-dimethyl-ethoxy)ethyl]-1,2,5-oxadiazole-3-carboxamide], the IC50 (Homo sapiens, Keratinocyte) is under 0.05 µM.
Where the note is “Homo sapiens, Keratinocyte”, `C[C@@H](O[C@H](C)C(F)(F)F)[C@H](NC(=O)c1nonc1C1CC1)c1nc2ccc(CN3C[C@@H](C(F)(F)F)NC3=O)c(F)c2[nH]1` [Example 93, 4-Cyclopropyl-N-[(1R,2R)-1-[7-fluoro-6-[[(4S)-2-oxo-4-(trifluoromethyl)imidazolidin-1-yl]methyl]-1H-benzimidazol-2-yl]-2-[(1R)-2,2,2-trifluoro-1-methyl-ethoxy]propyl]-1,2,5-oxadiazole-3-carboxamide] showed an IC50 of under 0.05 µM.
Same read-out and setting: under `[2H]C1([2H])NC(=O)N([C@@H](c2ccc3[nH]c([C@H](COC(C)(C)C(F)(F)F)NC(=O)c4nonc4C)nc3c2)C2CC2)C([2H])([2H])C1(F)F` [Example 80, N—((R)-1-(5-((R)-Cyclopropyl(5,5-difluoro-2-oxotetrahydropyrimidin-1(2H)-yl-4,4,6,6-d4)methyl)-1H-benzo[d]imidazol-2-yl)-2-((1,1,1-trifluoro-2-methylpropan-2-yl)oxy)ethyl)-4-methyl-1,2,5-oxadiazole-3-carboxamide] stands under 0.05 µM.
Where the note is “Homo sapiens, Keratinocyte”, `Cc1nonc1C(=O)N[C@H](c1nc2c(F)cc([C@@H](C3CC3)N3C[C@@H](C(F)(F)F)NC3=O)cc2[nH]1)[C@@H](C)O[C@H](C)C(F)(F)F` [Example 86, N-[(1R,2R)-1-[6-[(R)-Cyclopropyl-[(4S)-2-oxo-4-(trifluoromethyl)imidazolidin-1-yl]methyl]-4-fluoro-1H-benzimidazol-2-yl]-2-[(1R)-2,2,2-trifluoro-1-methyl-ethoxy]propyl]-4-methyl-1,2,5-oxadiazole-3-carboxamide] returned an IC50 of under 0.05 µM.
For the compound `COCC(c1ccc2[nH]c([C@H](COC(C)(C)C(F)(F)F)NC(=O)c3nonc3C)nc2c1)N1C[C@@](C)(C(F)(F)F)NC1=O` (single isomer, unassigned) [Example 64, N—((R)-1-(5-((S*)-2-Methoxy-1-((S)-4-methyl-2-oxo-4-(trifluoromethyl)imidazolidin-1-yl)ethyl)-1H-benzo[d]imidazol-2-yl)-2-((1,1,1-trifluoro-2-methylpropan-2-yl)oxy)ethyl)-4-methyl-1,2,5-oxadiazole-3-carboxamide], the IC50 is over 0.1 µM.
As for `[2H]C1([2H])NC(=O)N([C@@H](c2ccc3[nH]c([C@H](COC(C)(C)C(F)(F)F)NC(=O)c4ccnn4C(C)C)nc3c2)C2CC2)C([2H])([2H])C1(F)F` [Example 79, N—((R)-1-(5-((R)-Cyclopropyl(5,5-difluoro-2-oxotetrahydropyrimidin-1(2H)-yl-4,4,6,6-d4)methyl)-1H-benzo[d]imidazol-2-yl)-2-((1,1,1-trifluoro-2-methylpropan-2-yl)oxy)ethyl)-1-isopropyl-1H-pyrazole-5-carboxamide], under “Homo sapiens, Keratinocyte”, the IC50 is under 0.05 µM.
On the same count and under the same terms, with `COC[C@H](c1ccc2[nH]c([C@@H](NC(=O)c3nonc3C3CC3)[C@@H](C)OC3CC3)nc2c1)N1C[C@@H](C(F)(F)F)NC1=O` [Example 42, N-((1R,2R)-2-Cyclopropoxy-1-(5-((S)-2-methoxy-1-((S)-2-oxo-4-(trifluoromethyl)imidazolidin-1-yl)ethyl)-1H-benzo[d]imidazol-2-yl)propyl)-4-cyclopropyl-1,2,5-oxadiazole-3-carboxamide] the figure was under 0.05 µM; with `Cc1nonc1C(=O)N[C@H](c1nc2ccc(CN3C[C@@H](C(F)(F)F)NC3=O)c(F)c2[nH]1)[C@@H](C)O[C@H](C)C(F)(F)F` [Example 92, N-[(1R,2R)-1-[7-Fluoro-6-[[(4S)-2-oxo-4-(trifluoromethyl)imidazolidin-1-yl]methyl]-1H-benzimidazol-2-yl]-2-[(1R)-2,2,2-trifluoro-1-methyl-ethoxy]propyl]-4-methyl-1,2,5-oxadiazole-3-carboxamide], under 0.05 µM.
Still for that read-out and setting: under `Cc1nonc1C(=O)N[C@@H](COC(C)(C)C(F)(F)F)c1nc2cc([C@@H](C3CC3)N3CC(CC(F)(F)F)NC3=O)ccc2[nH]1` (single isomer, unassigned) [Example 88, N—((R)-1-(5-((R)-Cyclopropyl((R*)-2-oxo-4-(2,2,2-trifluoroethyl)imidazolidin-1-yl)methyl)-1H-benzo[d]imidazol-2-yl)-2-((1,1,1-trifluoro-2-methylpropan-2-yl)oxy)ethyl)-4-methyl-1,2,5-oxadiazole-3-carboxamide] stands under 0.05 µM; under `COC[C@H](c1ccc2[nH]c([C@@H](NC(=O)c3nonc3C)[C@@H](C)OC3CC3)nc2c1)N1CC(F)(F)CNC1=O` [Example 65, N-((1R,2R)-2-Cyclopropoxy-1-(5-((S)-1-(5,5-difluoro-2-oxotetrahydropyrimidin-1(2H)-yl)-2-methoxyethyl)-1H-benzo[d]imidazol-2-yl)propyl)-4-methyl-1,2,5-oxadiazole-3-carboxamide], under 0.05 µM; under `[2H]C1([2H])N([C@@H](c2ccc3nc([C@H](COC(C)(C)C(F)(F)F)NC(=O)c4nonc4C)[nH]c3c2)C2CC2)C(=O)NCC1(F)F` [Example 77, N—((R)-1-(5-((R)-Cyclopropyl(5,5-difluoro-2-oxotetrahydropyrimidin-1(2H)-yl-6,6-d2)methyl)-1H-benzo[d]imidazol-2-yl)-2-((1,1,1-trifluoro-2-methylpropan-2-yl)oxy)ethyl)-4-methyl-1,2,5-oxadiazole-3-carboxamide], under 0.05 µM.
Regarding `C[C@H](O[C@H](C)[C@H](NC(=O)c1nonc1C1CC1)c1nc2cc([C@@H](COC3CC3)N3C[C@@H](C(F)(F)F)NC3=O)ccc2[nH]1)C(F)(F)F` [Example 68, N-((1R,2R)-1-(5-((S)-2-Cyclopropoxy-1-((S)-2-oxo-4-(trifluoromethyl)imidazolidin-1-yl)ethyl)-1H-benzo[d]imidazol-2-yl)-2-(((S)-1,1,1-trifluoropropan-2-yl)oxy)propyl)-4-cyclopropyl-1,2,5-oxadiazole-3-carboxamide], the IC50 (Homo sapiens, Keratinocyte) is under 0.05 µM.
Turning to `[2H]C1([2H])NC(=O)N([C@@H](c2ccc3[nH]c([C@H](COC(C)(C)C(F)(F)F)NC(=O)c4nonc4C4CC4)nc3c2)C2CC2)C([2H])([2H])C1(F)F` [Example 78, 4-Cyclopropyl-N—((R)-1-(5-((R)-cyclopropyl(5,5-difluoro-2-oxotetrahydropyrimidin-1(2H)-yl-4,4,6,6-d4)methyl)-1H-benzo[d]imidazol-2-yl)-2-((1,1,1-trifluoro-2-methylpropan-2-yl)oxy)ethyl)-1,2,5-oxadiazole-3-carboxamide], for the setting “Homo sapiens, Keratinocyte”, the IC50 was under 0.05 µM.
With `[2H]C1([2H])N([C@@H](c2ccc3nc([C@H](COC(C)(C)C(F)(F)F)NC(=O)c4nonc4C4CC4)[nH]c3c2)C2CC2)C(=O)NCC1(F)F` [Example 76, 4-Cyclopropyl-N—((R)-1-(5-((R)-cyclopropyl(5,5-difluoro-2-oxotetrahydropyrimidin-1(2H)-yl-6,6-d2)methyl)-1H-benzo[d]imidazol-2-yl)-2-((1,1,1-trifluoro-2-methylpropan-2-yl)oxy)ethyl)-1,2,5-oxadiazole-3-carboxamide], the IC50 (Homo sapiens, Keratinocyte) is under 0.05 µM.

A word on the IC50: it is the concentration at which inhibition is half-maximal.

The record behind these values is patent US20250122181A1, “BENZIMIDAZOLES AS MODULATORS OF IL-17” (Janssen Pharmaceutica NV, priority 2021, published 2025).
